A word on the logD: it is the decadic logarithm of the distribution of all forms, ionised or not, between an organic phase and buffer at a given pH. A lower logD goes with a more hydrophilic compound. As usually defined, the pIC50 is −log10 of the IC50, conventionally taken in molar units. A high value points to a small IC50. Usually pKd stands for the negative decadic logarithm of the Kd, by convention in mol/L.

pIC50, pKd: −log10 of the molar value.

Results on 16 molecules are retold here after ChEMBL document CHEMBL5346945, “Discovery and Optimization of the First ATP Competitive Type-III c-MET Inhibitor” (J Med Chem, 2023).

The nature of data set [1]: Metabolic stability in Han Wistar rat hepatocytes assessed as intrinsic clearance measured per million cells at 1 uM measured at 0.5 to 2 hrs by LC-MS/MS analysis. Format: ADME, cell-based, Hepatocyte. The following applies: time 0.5-2 hrs, read-out: CLH.
Data set [2] is described as follows: Lipophilicity, logD of compound in octanol and water at pH 7.4 measured by shake-flask method. Format: physicochemical.
Data set [3] is described as follows: Metabolic stability in human liver microsomes assessed as intrinsic clearance at 1 uM preincubated with NADPH for 8 mins followed by compound addition measured at 0.5 to 30 mins by LC-MS/MS analysis. Format: ADME, Microsome. The conditions noted are these: time 0.5-30 min, read-out: CLH.
Data set [4] deals with T1, Hepatocyte growth factor receptor (Homo sapiens, UniProt P08581). In words: Inhibition of wild type c-MET (unknown origin) using ATP and poly(L-glutamic acid-L-tyrosine) as substrate incubated for 60 mins measured by ADP-Glo kinase assay. A general note: ADP-Glo first removes unused ATP, then detects ADP through luciferase.
T1 sequence (P08581 whole entry): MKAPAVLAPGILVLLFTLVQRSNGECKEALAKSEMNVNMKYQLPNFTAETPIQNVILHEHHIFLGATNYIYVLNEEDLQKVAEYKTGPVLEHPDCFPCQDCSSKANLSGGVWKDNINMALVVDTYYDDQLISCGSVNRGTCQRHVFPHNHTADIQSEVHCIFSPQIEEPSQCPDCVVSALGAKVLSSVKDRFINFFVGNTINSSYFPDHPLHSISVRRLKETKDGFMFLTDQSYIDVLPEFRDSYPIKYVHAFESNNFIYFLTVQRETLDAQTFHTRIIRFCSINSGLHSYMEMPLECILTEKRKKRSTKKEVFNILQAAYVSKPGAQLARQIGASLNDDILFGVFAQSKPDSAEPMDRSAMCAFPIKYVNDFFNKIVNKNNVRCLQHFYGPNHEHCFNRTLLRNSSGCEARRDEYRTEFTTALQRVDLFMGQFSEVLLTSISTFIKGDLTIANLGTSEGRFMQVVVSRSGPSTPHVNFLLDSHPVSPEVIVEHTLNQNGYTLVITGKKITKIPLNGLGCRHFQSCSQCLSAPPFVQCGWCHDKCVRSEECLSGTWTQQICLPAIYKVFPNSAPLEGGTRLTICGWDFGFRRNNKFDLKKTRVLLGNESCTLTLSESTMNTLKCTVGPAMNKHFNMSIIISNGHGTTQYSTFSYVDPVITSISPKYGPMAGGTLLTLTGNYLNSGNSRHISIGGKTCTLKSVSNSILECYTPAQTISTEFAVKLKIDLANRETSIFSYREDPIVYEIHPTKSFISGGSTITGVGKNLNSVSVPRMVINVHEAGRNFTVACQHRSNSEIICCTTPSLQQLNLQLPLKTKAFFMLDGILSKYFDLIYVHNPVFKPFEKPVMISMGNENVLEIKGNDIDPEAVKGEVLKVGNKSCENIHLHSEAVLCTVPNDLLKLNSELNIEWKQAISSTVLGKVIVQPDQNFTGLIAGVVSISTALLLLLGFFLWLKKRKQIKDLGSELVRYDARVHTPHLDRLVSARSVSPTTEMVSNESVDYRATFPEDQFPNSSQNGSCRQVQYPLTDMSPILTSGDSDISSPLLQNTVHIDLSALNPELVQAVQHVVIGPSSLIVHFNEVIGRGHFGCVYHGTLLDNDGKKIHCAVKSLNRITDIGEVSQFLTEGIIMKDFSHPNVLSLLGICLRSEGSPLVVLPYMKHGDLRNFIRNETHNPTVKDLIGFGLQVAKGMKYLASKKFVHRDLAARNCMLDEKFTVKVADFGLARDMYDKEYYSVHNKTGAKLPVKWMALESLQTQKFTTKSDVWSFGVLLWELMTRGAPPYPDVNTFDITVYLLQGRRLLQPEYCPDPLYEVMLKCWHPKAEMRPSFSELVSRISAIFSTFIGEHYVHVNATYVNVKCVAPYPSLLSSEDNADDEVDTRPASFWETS
In data set [5] the target is T1, Hepatocyte growth factor receptor. In words: Binding affinity to wild type c-MET (unknown origin) assessed as dissociation constant measured for 120 sec by SPR analysis. (SPR reads the build-up and loss of mass on a sensor chip optically.)

Regarding `CC(c1ccc(F)cc1)n1cc(-c2cc(F)cc3cn[nH]c23)c(=O)[nH]c1=O` (stereo not drawn), the hepatocyte CLint at 1 µM in data set [1] turned out to be 11.9 µL/min/1e6 cells. In data set [2], the logD was determined as 2.7. Also, in data set [3], the microsomal CLint at 1 µM was 5.61 µL/min/mg. The same molecule had a negative-log IC50 (pIC50) in data set [4] of 6.28.
On to `O=c1[nH]c(=O)n(Cc2ccccc2)cc1-c1cc(F)cc(F)c1`, for which the hepatocyte CLint at 1 µM in data set [1] turned out to be 76.7 µL/min/1e6 cells. Also, the pKd in data set [5] is < 4.00. In data set [2], this molecule showed a pH-dependent lipophilicity (logD) of 3. Besides, the microsomal CLint at 1 µM in data set [3] was determined as 20.6 µL/min/mg.
For `CC(c1cccc(-c2cn[nH]c2)c1)n1cc(-c2cc(F)cc(F)c2)c(=O)[nH]c1=O` (stereo not drawn) the same measures were 22.3 µL/min/1e6 cells, 6.10, 3.4 and < 3 µL/min/mg.
For `CC(c1cccc(-c2c[nH]cn2)c1)n1cc(-c2cc(F)cc(F)c2)c(=O)[nH]c1=O` (stereo not drawn) the same measures were 6.03 µL/min/1e6 cells, 6.28, 3.2 and 16.2 µL/min/mg.
Take `CC(c1ccccc1)n1cc(-c2cc(F)cc(F)c2)c(=O)[nH]c1=O` (stereo not drawn): in data set [1], the hepatocyte CLint at 1 µM was determined as 123 µL/min/1e6 cells. In addition, the pKd in data set [5] was 5.60. The molecule further registered a pH-dependent lipophilicity (logD) in data set [2] of 3.2. In addition, the microsomal CLint at 1 µM in data set [3] was found to be 17.8 µL/min/mg.
The matching figures for `CC(c1ccccc1)n1cc(-c2ccccn2)c(=O)[nH]c1=O` (stereo not drawn): 300 µL/min/1e6 cells, 5.35, 2.2 and 12.6 µL/min/mg.
For `C[C@@H](c1ccccc1)n1cc(-c2cc(F)cc(F)c2)c(=O)[nH]c1=O` the same measures were 133 µL/min/1e6 cells, 6.04, 3.1 and 7.68 µL/min/mg.
On to `CC(c1ccccc1)n1cc(-c2ccc3[nH]ccc3c2)c(=O)[nH]c1=O` (stereo not drawn), for which, in data set [1], the hepatocyte CLint at 1 µM was 217 µL/min/1e6 cells. For the same molecule, in data set [5], the pKd is 6.28. In data set [2], the logD was 2.9. In data set [3], the microsomal CLint at 1 µM was found to be 25.4 µL/min/mg.
On to `CC(c1ccc(F)cc1)n1cc(-c2cc(F)cc(F)c2)c(=O)[nH]c1=O` (stereo not drawn), for which, in data set [1], the hepatocyte CLint at 1 µM was 26.8 µL/min/1e6 cells. Also, in data set [5], the pKd was 5.92. The microsomal CLint at 1 µM in data set [3] turned out to be 17.4 µL/min/mg.
`CC(c1ccccc1)n1cc(-c2ncccn2)c(=O)[nH]c1=O` (stereo not drawn): the hepatocyte CLint at 1 µM in data set [1] worked out at 4.67 µL/min/1e6 cells. The pKd in data set [5] was 5.57. Moreover, in data set [2], the log distribution coefficient (logD) is 0.85. Besides, the microsomal CLint at 1 µM in data set [3] was < 3 µL/min/mg.
The matching figures for `CC(c1ccccc1Cl)n1cc(-c2cc(F)cc(F)c2)c(=O)[nH]c1=O` (stereo not drawn): 227 µL/min/1e6 cells, 4.44, 3.6 and 38.3 µL/min/mg.
The matching figures for `CC(c1ccccc1)n1cc(-c2ccccc2)c(=O)[nH]c1=O` (stereo not drawn): 185 µL/min/1e6 cells, 5.41, 2.7 and 50.1 µL/min/mg.
Regarding `CC(c1cccc(-c2cc[nH]n2)c1)n1cc(-c2cc(F)cc(F)c2)c(=O)[nH]c1=O` (stereo not drawn), the hepatocyte CLint at 1 µM in data set [1] amounted to 24.7 µL/min/1e6 cells. Also, the pKd in data set [5] is 5.59. The molecule further had a log distribution coefficient (logD) in data set [2] of 3.5. In data set [3], the microsomal CLint at 1 µM came out at 5.04 µL/min/mg.
For `CC(c1cccc(-c2c[nH]cn2)c1)n1cc(-c2cccc3cn[nH]c23)c(=O)[nH]c1=O` (stereo not drawn) the same measures were 5.84 µL/min/1e6 cells, 6.34, 2.3 and 8.92 µL/min/mg.
As for `C#Cc1n[nH]c2c(-c3cn(C(C)c4ccccc4)c(=O)[nH]c3=O)cccc12` (stereo not drawn), the hepatocyte CLint at 1 µM in data set [1] was determined as 9.1 µL/min/1e6 cells. Moreover, the pH-dependent lipophilicity (logD) in data set [2] worked out at 3.2. In data set [3], the microsomal CLint at 1 µM stood at 12.8 µL/min/mg. For the same molecule, the pIC50 in data set [4] is 7.40.
Consider `CC(c1cccc(Cl)c1)n1cc(-c2cc(F)cc(F)c2)c(=O)[nH]c1=O` (stereo not drawn), for which, in data set [1], the hepatocyte CLint at 1 µM came out at 177 µL/min/1e6 cells. Further, the negative-log Kd (pKd) in data set [5] was 6.00. This molecule also had a log distribution coefficient (logD) in data set [2] of 3.8. In addition, in data set [3], the microsomal CLint at 1 µM was 27.4 µL/min/mg.
